According to patent US10611760B2, “Therapeutic compounds as inhibitors of the orexin-1 receptor” (C4X Discovery Limited, priority 2014, dated 2020):
Structures can show the parent of a compound that is named as a salt.

Legend:
Assay type in all cases: cell-based
[1] = biological target: T1, hOX1R (Homo sapiens, UniProt O43613); test: Intracellular calcium measurements using stable-replicating cells, Method B (CHO cells, FLIPR Tetra), OX1; settings: orexin A at EC75, read-out: pIC50 OX1 (converted)
T1 sequence (O43613 1-425): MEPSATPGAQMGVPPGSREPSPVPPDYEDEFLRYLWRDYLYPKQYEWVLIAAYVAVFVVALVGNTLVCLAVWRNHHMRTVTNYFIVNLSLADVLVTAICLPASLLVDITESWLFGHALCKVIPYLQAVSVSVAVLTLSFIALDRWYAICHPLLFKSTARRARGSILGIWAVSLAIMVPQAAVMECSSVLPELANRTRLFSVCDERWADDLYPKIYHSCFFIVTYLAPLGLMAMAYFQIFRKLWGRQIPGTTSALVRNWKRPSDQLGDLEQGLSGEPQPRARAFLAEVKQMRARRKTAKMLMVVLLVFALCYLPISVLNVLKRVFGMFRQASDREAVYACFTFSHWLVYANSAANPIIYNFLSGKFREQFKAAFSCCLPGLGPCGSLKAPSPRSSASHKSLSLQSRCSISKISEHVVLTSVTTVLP
Procedure: (§1) Intracellular Calcium Measurements Using Stable-replicating Cells:
(§2) Human OX1 or human OX2 receptor expressing CHO cells are plated into 384 well black, clear bottom, CellBIND plates at a seeding density of 10,000 cells/75 μL growth media. The seeded plates are incubated at 37° C. in air supplemented with 5% CO2 overnight.
(§3) The next day media is removed and replaced with 30 μL/well of cell loading buffer (a vial of Calcium 5 is solubilized in 20 mL of assay buffer) and the cells incubated for 1 hr at 37° C. The serially diluted test compounds (10 μL/well) are added to the cell plate by the FLIPR Tetra and the addition is monitored for 5 mins by the instrument. The cell plate is then removed and incubated for additional 25 mins in a humidified incubator at […] prior to being placed back into the FLIPR Tetra. Finally 10 μL of orexin A in assay buffer +0.1% (w/v) bovine serum albumin is dispensed by the FLIPR Tetra at an EC75 concentration determined for each assay run. Fluorescence is measured at excitation and emission wavelengths of 485 nm and 525 nm respectively and data analyzed using GraphPad Prism for the EC75 value of orexin A and Aplus to determine an IC50 value for each test compound.

[2] = biological target: T2, hOX2R (Homo sapiens, UniProt O43614); test: Intracellular calcium measurements using division-arrested cells, OX2; settings: agonist orexin B at 2×EC50, * = single experiment, otherwise average of at least two, read-out: pIC50 OX2 (converted)
T2 sequence (O43614 1-444): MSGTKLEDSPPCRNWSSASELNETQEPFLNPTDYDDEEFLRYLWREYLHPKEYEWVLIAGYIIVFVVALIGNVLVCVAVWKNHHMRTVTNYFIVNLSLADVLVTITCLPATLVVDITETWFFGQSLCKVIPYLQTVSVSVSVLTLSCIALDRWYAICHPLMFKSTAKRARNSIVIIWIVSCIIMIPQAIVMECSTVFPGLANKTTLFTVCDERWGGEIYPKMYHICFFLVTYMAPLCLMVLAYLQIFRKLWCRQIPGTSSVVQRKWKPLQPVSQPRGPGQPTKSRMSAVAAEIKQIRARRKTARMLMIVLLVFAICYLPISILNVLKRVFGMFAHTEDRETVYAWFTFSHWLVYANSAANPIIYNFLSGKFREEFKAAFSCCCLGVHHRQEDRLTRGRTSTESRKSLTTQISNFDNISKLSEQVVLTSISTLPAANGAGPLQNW
Procedure: (§4) Intracellular Calcium Measurements Using Division-arrested Cells (Table 1):
(§5) Test compounds are prepared as 10 mM stock solutions in DMSO, then serially diluted in half log concentrations with DMSO followed by dilution with assay buffer (HBSS (Sigma-Aldrich, H8264) containing 20 mM HEPES (Sigma-Aldrich, H4034), 0.1% (w/v) bovine serum albumin and adjusted to pH 7.4) to a top final assay concentration of 10 μM.
(§6) Human OX1 (CT-A474) and human OX2 (CT-A475) receptor-expressing division-arrested cells are plated into 384 well black, clear bottom, cell-bind plates at a seeding density of 10,000 cells/50 μL growth media. The seeded plates are incubated at 37° C. in air supplemented with 5% CO2 for 16 hrs.
(§7) The media is removed and replaced with 30 μL/well of cell loading buffer (a vial of Calcium 5 is solubilized in 22 mL of assay buffer to which a freshly prepared 250 mM solution of probenecid in 1:1 1M NaOH to assay buffer (200 μL) is added) and the cells incubated for 1 hr at 37° C. The serially diluted test compounds (10 μL/well) are added to the plate, which is then incubated for 10 mins and placed in a FlexStation III reader.

[3] = biological target: T1, hOX1R; test: Intracellular calcium measurements using division-arrested cells, OX1; settings: agonist orexin A at 2×EC50, * = single experiment, otherwise average of at least two, read-out: pIC50 OX1 (converted)
Procedure: as §4, §5, §6, §7

[4] = biological target: T2, hOX2R; test: Intracellular calcium measurements using stable-replicating cells, Method B (CHO cells, FLIPR Tetra), OX2; settings: orexin A at EC75, read-out: pIC50 OX2 (converted)
Procedure: as §1, §2, §3

Structure (SMILES)	IC50 [1] [nM]	IC50 [2] [nM]	IC50 [3] [nM]	IC50 [4] [nM]
CC[C@@H](CNc1ccc(Cl)cn1)N(C)C(=O)c1cc(C(F)(F)F)cnc1-n1nccn1 [Example 24, (S)—N-(1-((5-chloropyridin-2-yl)amino)butan-2-yl)-N-methyl-2-(2H-1,2,3-triazol-2-yl)-5-(trifluoromethyl)nicotinamide]	3980	> 10000	2000	> 10000
Cc1ccc(-n2nccn2)c(C(=O)N(C)[C@H](CNc2ccc(Cl)cn2)C(C)C)c1 [Example 49, (S)—N-(1-((5-chloropyridin-2-yl)amino)-3-methylbutan-2-yl)-N,5-dimethyl-2-(2H-1,2,3-triazol-2-yl)benzamide]	5.01	> 5010	31.6	> 3980
CC[C@@H](CNc1ccc(Cl)cn1)N(C)C(=O)c1cc(OC(F)(F)F)ccc1-n1nccn1 [Example 20, (S)—N-(1-((5-chloropyridin-2-yl)amino)butan-2-yl)-N-methyl-2-(2H-1,2,3-triazol-2-yl)-5-(trifluoromethoxy)benzamide]	100	–	200	3160
CC[C@@H](CNc1ccc2ncccc2n1)N(C)C(=O)c1nc(C)ccc1-n1nccn1 [Example 76, (S)—N-(1-((1,5-naphthyridin-2-yl)amino)butan-2-yl)-N,6-dimethyl-3-(2H-1,2,3-triazol-2-yl)picolinamide]	25.1	–	–	> 2000
Cc1ccc(-n2nccn2)c(C(=O)N(C)[C@H](CNc2ccc(C(F)(F)F)cn2)C(C)C)n1 [Example 69, (S)—N,6-dimethyl-N-(3-methyl-1-((5-(trifluoromethyl)pyridin-2-yl)amino)butan-2-yl)-3-(2H-1,2,3-triazol-2-yl)picolinamide]	3.16	–	–	3160
CC[C@@H](CN(CCOC)c1ncc(C(F)(F)F)cn1)N(C)C(=O)c1nc(C)ccc1-n1nccn1 [Example 83, (S)—N-(1-((2-methoxyethyl)(5-(trifluoromethyl)pyrimidin-2-yl)amino)butan-2-yl)-N,6-dimethyl-3-(2H-1,2,3-triazol-2-yl)picolinamide]	12.6	–	–	> 1000
CC[C@@H](CNc1ccc(C(F)(F)F)nn1)N(C)C(=O)c1cc(Cl)ccc1-n1nccn1 [Example 41, (S)-5-chloro-N-methyl-2-(2H-1,2,3-triazol-2-yl)-N-(1-((6-(trifluoromethyl)pyridazin-3-yl)amino)butan-2-yl)benzamide]	20	> 10000	200	> 5010
CC[C@@H](CNc1ncc(C(F)(F)F)cn1)N(C)C(=O)c1nc(C)ccc1-n1cncn1 [Example 89, (S)—N,6-dimethyl-3-(1H-1,2,4-triazol-1-yl)-N-(1-((5-(trifluoromethyl)pyrimidin-2-yl)amino)butan-2-yl)picolinamide formic acid salt]	2000	–	–	> 10000
CC[C@@H](CNc1ccc(C(F)(F)F)cn1)N(CC)C(=O)c1nc(C)ccc1-n1nccn1 [Example 71, (S)—N-ethyl-6-methyl-3-(2H-1,2,3-triazol-2-yl)-N-(1-((5-(trifluoromethyl)pyridin-2-yl)amino)butan-2-yl)picolinamide]	1	–	–	316
CC[C@@H](CN(C)c1ncc(C(F)(F)F)cn1)N(C)C(=O)c1nc(C)ccc1-n1nccn1 [Example 82, (S)—N,6-dimethyl-N-(1-(methyl(5-(trifluoromethyl)pyrimidin-2-yl)amino)butan-2-yl)-3-(2H-1,2,3-triazol-2-yl)picolinamide]	7.94	–	–	> 10000
Cc1ccc(-n2nccn2)c(C(=O)N(C)[C@H](CNc2ncc(C(F)(F)F)cn2)C(C)C)n1 [Example 66, (S)—N,6-dimethyl-N-(3-methyl-1-((5-(trifluoromethyl)pyrimidin-2-yl)amino)butan-2-yl)-3-(2H-1,2,3-triazol-2-yl)picolinamide]	12.6	–	–	> 631
Cc1ccc(-n2nccn2)c(C(=O)N(C)[C@H](CNc2ncc3ccccc3n2)C(C)C)n1 [Example 68, (S)—N,6-dimethyl-N-(3-methyl-1-(quinazolin-2-ylamino)butan-2-yl)-3-(2H-1,2,3-triazol-2-yl)picolinamide]	15.8	–	–	> 1000
Cc1ccc(-n2nccn2)c(C(=O)N(C)[C@H](CNc2ncc(C(F)(F)F)cn2)C2CC2)n1 [Example 74, (S)—N-(1-cyclopropyl-2-((5-(trifluoromethyl)pyrimidin-2-yl)amino)ethyl)-N,6-dimethyl-3-(2H-1,2,3-triazol-2-yl)picolinamide]	2000	–	–	> 10000
CC[C@@H](CNc1ncc(C(F)(F)F)cn1)N(C)C(=O)c1nc(C)ccc1-n1cccn1 [Example 90, (S)—N,6-dimethyl-3-(1H-pyrazol-1-yl)-N-(1-((5-(trifluoromethyl)pyrimidin-2-yl)amino)butan-2-yl)picolinamide formic acid salt]	2	–	–	> 1000
CC[C@@H](CNc1cnc2ccccc2n1)N(C)C(=O)c1nc(C)ccc1-n1nccn1 [Example 65, (S)—N,6-dimethyl-N-(1-(quinoxalin-2-ylamino)butan-2-yl)-3-(2H-1,2,3-triazol-2-yl)picolinamide]	2	–	–	794
CC[C@@H](CNc1ccc(Cl)cn1)N(C)C(=O)c1cc(Br)ccc1-n1nccn1 [Example 19, (S)-5-bromo-N-(1-((5-chloropyridin-2-yl)amino)butan-2-yl)-N-methyl-2-(2H-1,2,3-triazol-2-yl)benzamide]	1.58	1580	25.1	501
CC[C@@H](CNc1ncc(C(F)(F)F)cn1)N(C)C(=O)c1c(F)cccc1-n1nccn1 [Example 91, (S)-2-fluoro-N-methyl-6-(2H-1,2,3-triazol-2-yl)-N-(1-((5-(trifluoromethyl)pyrimidin-2-yl)amino)butan-2-yl)benzamide]	25.1	–	–	> 7940
